The values that follow come from US8236785B2, “Method of treating or preventing infertility in a female mammal and pharmaceutical kit for use in such method” (Pantarhei Bioscience B.V., priority 2007, dated 2012).

Data set [1] has as its system premature LH-surge. Put plainly: Open-label uncontrolled clinical trial of premature LH-surge prevention in women undergoing COH/IVF. Format: in vivo. Conditions: daily oral 40 mg. The method, then: An open-label, uncontrolled, single centre clinical trial is performed to investigate the efficacy, safety and tolerability of premature LH-surge prevention in 10 women undergoing IVF treatment for infertility by Controlled Ovarian Hyperstimulation (COH), using a daily oral dosage of 40 mg estetrol (E4) from day 6 of FSH treatment up to and including the day of hCG administration to resume meiosis and induce lutëinisation. Oocytes are retrieved 30-38 hours after hCG administration, fertilised in vitro and two days later no more than two embryos are transferred to the uterus of the patient. Standard luteal support is prescribed.
Ultrasonographic monitoring of follicle growth and endometrial thickness are performed during this treatment procedure including extensive and repeated hormonal analysis and measurement of E4 levels extending into the luteal phase after embryo transfer.

The subject of data set [2] is premature LH-surge. Put plainly: Randomised controlled dose-finding clinical trial of premature LH-surge prevention in COH/IVF, E4 versus ganirelix. In kind it is in vivo, women. The procedure: An open-label, randomised, controlled, dose-finding, multi-centre clinical trial is performed to investigate and compare the efficacy, safety and tolerability of premature LH-surge prevention in women undergoing COH/IVF using either E4 in an oral dosage of 1, 5, 10, 20, 40 or 80 mg per day or a daily subcutaneous injection of 0.25 mg ganirelix. Group size is 30 women, so in total 210 patients participate in the trial. E4/ganirelix treatment is started on day 6 of FSH treatment up to and including the day of hCG administration. Further procedures are similar to example 1.

The target in data set [3] is T1, ERα receptor (Homo sapiens, UniProt P03372).
T1 sequence (P03372 1-595): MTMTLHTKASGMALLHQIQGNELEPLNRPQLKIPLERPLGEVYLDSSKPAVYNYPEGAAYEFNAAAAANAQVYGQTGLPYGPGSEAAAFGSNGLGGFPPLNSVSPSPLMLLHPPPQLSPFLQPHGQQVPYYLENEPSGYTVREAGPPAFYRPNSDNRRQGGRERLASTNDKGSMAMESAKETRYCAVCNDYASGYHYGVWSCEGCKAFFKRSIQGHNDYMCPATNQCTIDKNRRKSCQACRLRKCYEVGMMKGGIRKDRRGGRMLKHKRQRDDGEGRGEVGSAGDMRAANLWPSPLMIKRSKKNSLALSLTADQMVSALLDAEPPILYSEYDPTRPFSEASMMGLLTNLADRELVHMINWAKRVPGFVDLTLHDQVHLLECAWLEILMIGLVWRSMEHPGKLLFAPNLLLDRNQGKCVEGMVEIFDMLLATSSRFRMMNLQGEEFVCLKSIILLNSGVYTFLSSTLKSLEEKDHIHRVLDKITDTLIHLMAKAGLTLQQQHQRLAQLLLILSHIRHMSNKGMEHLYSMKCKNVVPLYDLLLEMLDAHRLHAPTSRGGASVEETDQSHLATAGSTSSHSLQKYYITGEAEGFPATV
Put plainly: Estrogen receptor affinity. Format: binding.

Data set [4] has as its target ERβ receptor (Homo sapiens, UniProt Q92731). Put plainly: Estrogen receptor affinity. In kind it is binding.

Sequence of ERβ receptor (Q92731 whole entry): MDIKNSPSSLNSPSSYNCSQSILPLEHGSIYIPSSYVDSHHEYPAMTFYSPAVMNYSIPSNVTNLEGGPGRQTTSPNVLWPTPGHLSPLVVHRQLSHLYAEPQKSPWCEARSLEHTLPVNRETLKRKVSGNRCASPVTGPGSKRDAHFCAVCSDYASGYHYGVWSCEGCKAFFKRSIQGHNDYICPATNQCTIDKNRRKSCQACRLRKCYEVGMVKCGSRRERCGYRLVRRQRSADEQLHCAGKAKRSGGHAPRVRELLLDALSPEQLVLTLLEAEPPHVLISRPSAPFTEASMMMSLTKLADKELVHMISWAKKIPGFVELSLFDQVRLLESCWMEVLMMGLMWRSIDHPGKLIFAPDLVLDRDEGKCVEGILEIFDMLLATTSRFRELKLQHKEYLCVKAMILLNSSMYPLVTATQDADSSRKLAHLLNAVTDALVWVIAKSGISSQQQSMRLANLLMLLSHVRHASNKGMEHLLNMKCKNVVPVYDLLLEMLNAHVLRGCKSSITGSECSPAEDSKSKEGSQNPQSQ

As to `C[C@]12CC[C@@H]3c4ccc(O)cc4CC[C@H]3[C@@H]1[C@@H](O)[C@@H](O)[C@@H]2O` [estetrol, 1,3,5 (10)-estratrien-3,15α,16α,17β-tetrol], the tolerability / side-effects result is “well tolerated without significant side-effects” in data set [1]; “well tolerated and without significant side-effects” in data set [2] (oral 1-80 mg per day). Further, in data set [1] (from day 6 of FSH treatment up to and including day of hCG, 10 women), the “prevention of a premature LH-surge” value is on record as “efficacious in preventing a premature LH-surge”. The vital pregnancies result in data set [1] (COH/IVF with embryo transfer) was “Vital pregnancies occur”. For the same molecule, the “prevention of premature LH-surges compared with ganirelix” value in data set [2] (higher oral dosages vs daily subcutaneous 0.25 mg ganirelix) is reported as “equally effective to parenteral ganirelix”. In data set [2] (oral 1, 5, 10, 20, 40 or 80 mg per day), the “prevention of premature LH-surges” value was “dose dependent prevention of premature LH-surges”. The “vital pregnancy rates compared with ganirelix” value in data set [2] (oral E4 vs daily subcutaneous 0.25 mg ganirelix) is “trend to be superior to ganirelix treated patients”. For the same molecule, in data set [3], the “affinity for the ERα receptor” value is given as “relatively high affinity”. In addition, the “affinity for the ERβ receptor” value in data set [4] is listed as “relatively low affinity”.
